For one compound, concentration results are on record in patent US5861417A, “Heterocyclic substituted pyrrolidine amide derivatives” (Hoechst Marion Roussel, Inc., priority 1997, dated 1999).

Data set [1] is described as follows: Metabolic Stability in Human Liver S9. Conditions: human liver S9, 10 μM initial, 37° C. In kind it is in vitro ADME. The method, then: (§1) Evaluation of metabolism in human and guinea pig liver
(§2) One skilled in the art can determine the metabolic stability for the compounds of the present invention by determining the rate of disappearance of the test compound in vitro in liver extracts. Metabolic stability is inversely related to the rate of metabolism which can be evaluated by determining the rate of disappearance of the test compounds during the initial linear phase of this assay.
(§3) This method is carried out using either S9 or S10 liver supernatant obtained from either guinea pig or human liver. Guinea pig liver S9 can be purchased from Vitro Technologies, Baltimore, Md. and human liver S9 can be purchased from IIAM, Eaton Pa. Both guinea pig and human S10 supernatant can be prepared as follows: Combine weighed liver (fresh or stored at -80° C. until use) and 1.15% aqueous potassium chloride solution (10-15 mL) and homogenize using a PCU Poltron from Kinematics of Switzerland or equivalent. Combine the homogenate with 1.15% aqueous potassium chloride solution, sufficient so that 3 mL of solution (total) is used per […] of liver, and mix. Store the above homogenate on ice at all times prior to use and at -80° C. for long term storage.
(§4) Centrifuge a 20 mL volume of the homogenate at 12,500 rpm (10,000×gravity) at 3° C. After 20 minutes, remove the cover of white lipid protein, if present, and transfer the supernatant to a clean centrifuge tube. Centrifuge the supernatant at 12,500 (10,000×gravity) at 3° C. for 20 minutes before transfer to a clean storage vessel to give the S10 supernatant. Store the S10 supernatant on ice or at -80° C. for long term storage.
(§5) Prepare a stock solution of each test compound in methanol, such that 0.1 mL of the stock solution when spiked into 16 mL of incubation mixture yields an initial concentration of 10 μM of the test compound. Using this method the methanol content of the final incubation mixture will not exceed 1%.
(§6) Prepare the incubation mixture by combining in an incubation beaker S9 or S10 supernatant (4 mL); an aqueous solution containing 1.1 mM NADP, […] (4 units/2 mL)(0.32 mL); and an aqueous 0.1M dipotassium monohydrogen phosphate solution (7.58 mL). Incubate the test compound by adding 0.1 mL of the stock solution of test compound to an incubation mixture, placed in a shaking water bath at 37° C.
(§7) To determine the rate of disappearance of test compounds in this assay, remove triplicate aliquots (0.5 mL) from the incubation beaker at 1, 3, 5, 10, 15, 30, and 60 minutes. Freeze all aliquots in a hexane/dry-ice slurry to instantly deactivate the enzymes. Store at -70° C. until assayed. The concentration of test compound in each aliquot is determined by HPLC after preparation and as compared to a standard concentration of test compound, such preparations and determinations are well known and appreciated in the art. The rate of disappearance can be determined from the slope of the initial linear phase of this assay by graphing the change in concentration of test compound vs. time.
(§8) Calibration standards for Compound A were prepared as follows: dissolve 10 mg of Compound A (free base) in methanol (10 mL) to give a 1 mg/mL stock solution. Use acetonitrile to dilute 1 mL of stock solution to 10 mL to give a 100 μg/mL spiking standard and serially dilute the 100 μg/mL solution with acetonitrile to give spiking standards having concentrations of 50, 25, 10, 5, 2.5, and 1.0 μg/mL. Calibration standards having concentrations of 10,000; 5,000; 2,500; 1,000; 500; 250; and 100 ng/mL are prepared in duplicated by adding 20 μL of each spiking standards to 0.2 mL of control S9 supernatant. Blanks and samples each receive 20μL of acetonitrile. […]

A short description of data set [2]: Metabolic Stability in Guinea Pig Liver S9. In kind it is in vitro ADME. Conditions: guinea pig liver S9, 10 μM initial, 37° C. The method, then: as §1, §2, §3, §4, §5, §6, §7, §8

Turning to `COc1cc(C(=O)N2CCC(CCN3CCC(C(N)=O)(c4ccccc4)CC3)(c3ccc(Cl)c(Cl)c3)C2)cc(OC)c1OC.Cl` (single isomer, unassigned; (+)) [Compound C, (+)-1-(2-(3-(3,4-dichloro-phenyl)-1-(3,4,5-trimethoxy-benzoyl)-pyrrolidin-3-yl)-ethyl)-4-phenyl-piperidine-4-carboxylic acid amide hydrochloride], the concentration in data set [1] (1 min) stood at 6200 ng/mL; in data set [1] (3 min), 5600 ng/mL; in data set [1] (5 min), 5900 ng/mL; in data set [1] (10 min) it was 5200 ng/mL; in data set [1] (15 min) it was 4500 ng/mL; in data set [1] (30 min) it was 3200 ng/mL. Also, the concentration in data set [1] (60 min) is 2500 ng/mL; in data set [2] (1 min) it was 6300 ng/mL; in data set [2] (3 min), 6000 ng/mL; in data set [2] (5 min), 5300 ng/mL; in data set [2] (10 min), 4800 ng/mL; in data set [2] (15 min) it was 4000 ng/mL. Besides, the concentration turned out to be 3800 ng/mL in data set [2] (30 min) and 3500 ng/mL in data set [2] (60 min).
